Results reported in PMC5244253, “Phloretin Attenuates Listeria monocytogenes Virulence Both In vitro and In vivo by Simultaneously Targeting Listeriolysin O and Sortase A” (Frontiers in Cellular and Infection Microbiology, 2017).
Converted amounts (≈) assume the structure as drawn. Where two headings read alike, the source gives them in different places.

Columns and labels:
L. monocytogenes [1] = details: cited from earlier work
listeriolysin O (LLO) = molecular target: T1, listeriolysin O (LLO) (Listeria monocytogenes serovar 1/2a, UniProt P13128); test: Hemolysis assay of L. monocytogenes culture supernatants; type: cell-based
T1 construct: endogenous in cells; host or cells: L. monocytogenes EGDe wild-type strain BUG 1600
T1 sequence (P13128 25-529): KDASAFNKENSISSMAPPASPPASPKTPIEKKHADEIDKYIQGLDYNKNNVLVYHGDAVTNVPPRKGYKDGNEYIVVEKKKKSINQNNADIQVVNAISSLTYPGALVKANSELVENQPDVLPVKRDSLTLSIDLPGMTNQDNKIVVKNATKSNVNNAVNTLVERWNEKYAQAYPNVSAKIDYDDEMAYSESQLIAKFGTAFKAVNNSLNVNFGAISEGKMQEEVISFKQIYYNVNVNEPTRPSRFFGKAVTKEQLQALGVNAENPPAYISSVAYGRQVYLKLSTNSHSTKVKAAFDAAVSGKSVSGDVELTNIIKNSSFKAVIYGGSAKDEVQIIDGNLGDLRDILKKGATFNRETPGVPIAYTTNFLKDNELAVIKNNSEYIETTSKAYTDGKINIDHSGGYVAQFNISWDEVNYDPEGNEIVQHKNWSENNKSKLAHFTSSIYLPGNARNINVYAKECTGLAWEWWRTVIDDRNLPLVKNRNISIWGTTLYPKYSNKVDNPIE
Experimental: Overnight cultures of EGDe were enlarged and cultured into fresh TSB (1:100) at 37°C for 2 h with shaking and then treated with various concentrations of phloretin until the optical density (OD) at 600 nm reached 2.0, at which point they were harvested (8000 g, 5 min). The bacterial culture supernatants were incubated with rabbit erythrocytes (final concentration of 2.5%) in PBS (35 mM Na3PO4, 125 mM NaCl, 0.5 mg/mL BSA, pH 5.5) at 37°C for 30 min, and then the hemolytic activity of each sample was determined by measuring the release of hemoglobin in supernatants at an OD of 543 nm after centrifugation (8000 g, 1 min).
To examine the direct effect of phloretin on hemolysis induced by bacterial culture supernatants, the hemolytic activities of bacterial culture supernatants pre-incubated with various concentrations of phloretin were determined as described above.

LLO = type: cell-based, Listeria monocytogenes
hly = test: Agar assay and β-galactosidase activity analysis (phly-lacZ); type: cell-based, Listeria monocytogenes; details: phly-lacZ-containing bacteria; agar assay 0–116.68 μM and β-galactosidase activity
Experimental: The phly-lacZ plasmid was a kind gift from Dr. Birgitte Kallipolitis (University of Southern Denmark) and was electroporated into EGDe cells to perform an agar assay as described previously (Kastbjerg et al., [2010]). A 25-ml aliquot of TSB agar was melted at 44°C and supplemented with X-gal (150 μg/ml) and kanamycin (50 μg/ml) before being thoroughly mixed with 1 ml of an overnight culture of bacteria containing the phly-lacZ plasmid. Nine wells were made per plate following desiccation in Class II biosafety cabinet at room temperature. A 30-μl aliquot of phloretin or benzalkonium bromide at varying concentrations was added to each well. The plates were incubated for 48 h at 37°C. The β-galactosidase activities of the phly-lacZ-containing bacteria treated with various concentrations of phloretin were quantitatively determined as previously described (Larsen et al., [2006]).

T90A = molecular target: T2, T90A (Listeria monocytogenes serovar 1/2a, UniProt Q8Y8H5, T162A); test: Fluorescence-quenching binding constant (T90A); details: fluorescence-quenching spectroscopy, read-out: binding constant KA (converted)
T2 construct: GST (inferred from vector pGEX-6P-1) (N); made in house
T2 sequence (Q8Y8H5 71-222 T162A): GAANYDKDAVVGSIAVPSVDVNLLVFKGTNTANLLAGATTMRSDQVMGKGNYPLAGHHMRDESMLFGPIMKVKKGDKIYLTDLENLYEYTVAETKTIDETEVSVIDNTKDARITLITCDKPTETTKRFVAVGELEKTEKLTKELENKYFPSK
Experimental: (§1) The binding constant (KA) for phloretin with SrtA was measured using a fluorescence-quenching method. A 280-nm excitation wavelength with a 5-nm band-pass and a 345-nm emission wavelength with a 10-nm band-pass were used for the measurements. The details of the protocol used to perform the measurements were as previously described (Bandyopadhyay et al., [2002]; Jurasekova et al., [2009]).

I103A = molecular target: T3, I103A (Listeria monocytogenes serovar 1/2a, UniProt Q8Y8H5, I175A); test: Fluorescence-quenching binding constant (I103A); details: fluorescence-quenching spectroscopy, read-out: binding constant KA (converted)
T3 construct: GST (inferred from vector pGEX-6P-1) (N); made in house
T3 sequence (Q8Y8H5 71-222 I175A): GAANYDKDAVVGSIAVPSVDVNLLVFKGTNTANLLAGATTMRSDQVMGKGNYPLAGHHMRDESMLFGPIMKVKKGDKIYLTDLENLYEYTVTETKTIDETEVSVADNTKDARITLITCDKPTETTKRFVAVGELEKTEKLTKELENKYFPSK
Experimental: as §1

V129A = molecular target: T4, V129A (Listeria monocytogenes serovar 1/2a, UniProt Q8Y8H5, V201A); test: Fluorescence-quenching binding constant (V129A); details: fluorescence-quenching spectroscopy, read-out: binding constant KA (converted)
T4 construct: GST (inferred from vector pGEX-6P-1) (N); made in house
T4 sequence (Q8Y8H5 71-222 V201A): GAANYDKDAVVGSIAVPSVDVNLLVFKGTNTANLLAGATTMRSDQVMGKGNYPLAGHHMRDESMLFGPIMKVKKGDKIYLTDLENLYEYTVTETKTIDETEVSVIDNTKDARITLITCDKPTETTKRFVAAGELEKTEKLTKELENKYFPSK
Experimental: as §1

[2] = system: L. monocytogenes invasion into Caco-2 cells; test: L. monocytogenes invasion into Caco-2 cells (CFU assay, immunostaining); type: cell-based, Listeria monocytogenes; details: EGDeΔsrtA co-treated or pre-treated with phloretin; Caco-2, 1 h
Experimental: (§2) The Caco-2 cell line was maintained in RPMI-1640 medium with 10% fetal bovine serum, non-essential amino acids and antibiotics in a humidified atmosphere at 37°C with 5% CO2. The cells were routinely adjusted to a concentration of 3 × 10^5 cells per ml, seeded into 24-well plastic culture microplates (3 × 10^5 per microplate) and cultured for 48 h for immunostaining and the determination of intracellular bacterial growth. To assay LDH release, cell monolayers were incubated overnight in culture medium without antibiotics in 96-well plates (2 × 10^4 cells per well).
Caco-2 cells were co-cultured with L. monocytogenes at an MOI of 100. […] In each case, gentamicin (20 μg/ml) was added 30 min after bacterial internalization.
A 0.3% concentration of Triton X-100 was added to permeabilize the cells for 4 min prior to stain the total bacteria (intracellular + extracellular) with a rabbit L. monocytogenes-specific antibody (Abcam) and an Alexa Fluor 488-conjugated chicken anti-rabbit antibody (Molecular Probes).

[3] = system: L. monocytogenes-induced cytotoxicity in Caco-2 cells; test: LDH release assay of infected Caco-2 cells; type: cell-based, Listeria monocytogenes; details: all phloretin-treated groups vs infected untreated control; 5 h, MOI 100
Experimental: as §2
Caco-2 cells grown in 96-well microplates were infected with L. monocytogenes pre-exposed or not to phloretin at a multiplicity of infection (MOI) of 100. Following infections with discriminatory concentrations of phloretin for 5 h, the LDH released into the supernatants of the co-culture system was determined using a Cytotoxicity Detection Kit (LDH; Roche, Basel, Switzerland) as previously described (Wang et al., [2015a]).

Caco-2 cells = test: Cytotoxicity of phloretin in Caco-2 cells; type: cell-based; details: phloretin treatment alone
L. monocytogenes [4] = test: Mouse model of L. monocytogenes infection; type: in vivo, BALB/c mice
Experimental: Female 6- to 8-week-old BALB/c mice were purchased from Liao Ning Chang Sheng Biotechnology Co., LTD. The mice used for the experiments were housed and handled in accordance with the guidelines established by the United States National Institutes of Health. These studies were reviewed and approved by the Institutional Animal Care and Use Committee of Jilin University.
(§3) Overnight cultures of L. monocytogenes were enlarged by culturing into fresh TSB (1:100) at 37°C with shaking until the OD at 600 nm reached 1.0, at which point they were harvested. The cell pellets were washed and suspended in normal saline. To establish an infection model, 200 μL prepared bacterial suspension (1 × 10^8 CFU/ml) was intraperitoneally inoculated into BALB/c mice. The infected mice in the treatment group were subcutaneously administered 150 mg/kg of phloretin 2 h after infection and again at 8-h intervals. The infected mice in the […] group were injected with an equal volume of dimethyl sulfoxide (DMSO) at the same time points. Finally, a group of healthy mice received only phloretin to examine the toxicity of the drug. Each group had 10 mice, and the therapeutic trial lasted for 96 h; survival statistics were collected throughout this period.
(§4) For histopathologic analysis, the mice were euthanized with anesthesia following cervical dislocation at 48 h post-infection. Liver and spleen tissues were removed, fixed with formalin, embedded in paraffin, stained with hematoxylin and eosin and visualized by light microscopy. To analyze the bacterial burden in tissue, the liver and spleen tissues collected from the sacrificed mice were weighed, lysed in 2% Triton X-100 and inoculated onto TSB agar plates at 37°C overnight.

[5] = Toxicity of phloretin in healthy (uninfected) mice; type: in vivo, BALB/c mice
Experimental: as §3, §4

L. monocytogenes EGDe = test: Susceptibility assays (MIC, growth curve)
WT-SrtA [6] = molecular target: T5, WT-SrtA (Listeria monocytogenes serovar 1/2a, UniProt Q8Y8H5); test: Sortase A enzyme activity inhibition assay (WT-SrtA)
T5 sequence (Q8Y8H5 71-222): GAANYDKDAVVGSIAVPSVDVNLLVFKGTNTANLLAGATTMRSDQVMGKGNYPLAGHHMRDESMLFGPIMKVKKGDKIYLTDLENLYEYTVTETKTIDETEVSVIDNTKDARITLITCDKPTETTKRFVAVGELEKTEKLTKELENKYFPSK
Experimental: Following another incubation at 37°C for 1 h, the fluorescence intensity of each sample was determined at emission and excitation wavelengths of 350 and 520 nm, respectively, in a black 96-well plate.

WT-SrtA [7] = molecular target: T5, WT-SrtA; test: Fluorescence-quenching binding constant (WT-SrtA); set-up: GST (inferred from vector pGEX-6P-1) (N); made in house
Experimental: as §1

O=C(/C=C/c1ccccc1)c1ccccc1 [chalcone]
protection against L. monocytogenes infection in vitro and in vivo (L. monocytogenes [1]; inhibitor of SrtA, ref Li et al., 2016): robust protection

O=c1c(O)c(-c2ccc(O)c(O)c2)oc2cc(O)ccc12 [fisetin]
protection against L. monocytogenes infection in vitro and in vivo (L. monocytogenes [1]; inhibitor of LLO, ref Wang et al., 2015a): robust protection

O=C(CCc1ccc(O)cc1)c1c(O)cc(O)cc1O [phloretin]
hemolytic activities of culture supernatants of L. monocytogenes EGDe cells after co-culture (listeriolysin O (LLO); co-culture with phloretin 7.3–58.34 μM, rabbit erythrocytes): dose-dependently decreased | hemolytic activities of bacterial culture supernatants after direct pre-incubation (listeriolysin O (LLO); supernatants pre-incubated with various concentrations of phloretin): did not affect the hemolytic activities | LLO levels in bacterial culture supernatants and cell pellets (LLO): reduced in a concentration-dependent manner | transcription of hly (hly): did not affect the transcription of hly | Kd (T90A): 17.5 µM | Kd (I103A): 17.2 µM | Kd (V129A): 20.1 µM | invasion of EGDeΔsrtA (CFU assay) [2]: no difference was observed | LDH release of EGDe-infected Caco-2 cells [3]: decreased LDH release | cytotoxicity in Caco-2 cells (Caco-2 cells): did not significantly induce cytotoxicity | infected mice that had died by 96 h post-infection (L. monocytogenes [4]; 2 × 10^7 CFUs i.p. per mouse, phloretin 150 mg/kg s.c. 2 h after infection and at 8-h intervals): 25% | gross pathological changes in liver and spleen of infected mice (L. monocytogenes [4]; 48 h post-infection): clearly ameliorated | histopathology (inflammatory lesions) in infected mice (L. monocytogenes [4]; 48 h post-infection, liver and spleen sections): only minor inflammatory lesions | numbers of viable bacteria colonized in the livers and spleens (L. monocytogenes [4]; 48 h post-infection, vs infected mice treated with DMSO): significantly lower | survival rate vs control group treated with DMSO (L. monocytogenes [4]; phloretin 150 mg/kg s.c., 96 h): significantly higher survival rate | survival of mice treated only with phloretin, not infected ([5]; 150 mg/kg s.c. at 8-h intervals, 96 h): all survived | pathological changes in uninfected mice treated with phloretin ([5]; liver and spleen): no pathological changes were observed | MIC (L. monocytogenes EGDe; Listeria monocytogenes): 933 µM (≈ 256 µg/mL) | growth of L. monocytogenes (L. monocytogenes EGDe; at the concentrations required for inhibition of LLO expression and SrtA catalytic activity, OD 600 nm): not apparently affected | IC50 (WT-SrtA [6]): 37.2 µM | Kd (WT-SrtA [7]): 12.6 µM
